From patent publication US9809595B2 (priority 2013, dated 2017)

Tests used:
secretion of FlgD = assay: Secretion assay (Western blot of culture supernatant with anti-FlgD antibody); type: cell-based, Salmonella typhimurium; conditions: supernatant of 8.0 hr culture from the growth assay, strain SJW1103; FIG. 7a and 7b
Procedure: Then, effects of the selected compounds on different type III secretion phenotypes were assessed. 1 ml of the cell suspensions of 8.0 hr culture in the above-growth assay were centrifuged at 13,200 rpm (16,100 g) for 10 min. The supernatant fractions (0.9 ml) were fractionated into new tubes and mixed with 100% trichloroacetic acid thoroughly. The fractions were kept on ice at least 1 h to precipitate secreted proteins. After centrifugation at 15,400 rpm for 30 min, the precipitated supernatant fractions were resuspended in 0.02 ml of 1 M Tris base and stored −30° C. until use. Samples for SDS-PAGE analysis were prepared by adding 5× SDS loading Buffer and then heat at 95° C. for 5 min. SDS-PAGE analyses were carried out at the condition of 200V for 30 min using premade gels purchased from Bio-rad. Electro-blotting onto PVDF membrane was performed with iBlot from Invitrogen and the membranes were developed with Chromogenic Immuno-detection Kit (Invitrogen) using a custom antibody raised against FlgD, a flagellar protein (from Prof. Keiichi Namba, Osaka University). Images were digitized as gray scale color with ChemDoc (Bio-rad). Kaleidoscope (Bio-rad) was used as a molecular marker.

[1] = tested on: Salmonella typhimurium strain SJW1103; assay: Bacterial growth assay; type: cell-based; conditions: 5 μl of 100 mM compound in DMSO added to 10 ml LB, 303 K, OD600 read at 2, 4, 6, 8 and 10 hr; FIG. 6
Procedure: The effect of the candidate compounds on the viability of bacteria cultures were first tested before analyzing their effect on the flexibility of FlhBC. 80 compounds out of the 237 compounds were purchased from KISHIDA CHEMICAL Co., Ltd according to the ranking. The Salmonella typhimurium strain SJW1103 was grown in LB medium at 303 K. Overnight cultures were diluted in Fresh LB medium to an optical density at 600 nm (OD600) of 0.1. Each of 5 μl of 100 mM candidate compounds solubilized in DMSO or DMSO alone as a control was added into 10 ml LB medium in 50-ml volume polypropylene conical tubes. For obtaining growth curves of the cell under the presence of each chemical, 0.2 ml of the culture volume were removed at every 2 h (2, 4, 6, 8 and 10 hr) and diluted with 1 ml of LB to measure absorbance at OD600.

COc1cc(Cc2cnc(N)nc2N)cc(OC)c1OC [compound 64, 5-(3,4,5-Trimethoxybenzyl)pyrimidine-2,4-diamine]
inhibition of FlgD secretion (type III secretion system) (secretion of FlgD): inhibit the secretion of FlgD | effect on bacterial growth (growth curve, OD600) [1]: slight growth delay

Cn1c(=O)c2c(ncn2CC(O)CO)n(C)c1=O (stereo not shown) [compound 47, 7-(2,3-dihydroxypropyl)-1,3-dimethyl-3,7-dihydro-1H-purine-2,6-dione]
inhibition of FlgD secretion (type III secretion system) (secretion of FlgD): inhibit the secretion of FlgD | effect on bacterial growth (growth curve, OD600) [1]: slight growth delay
